The values that follow come from ChEMBL document CHEMBL1275492, “In vitro activity of ceftobiprole against pathogens from two phase 3 clinical trials of complicated skin and skin structure infections” (2008).

In brackets after ≈: the same amount, converted by molar mass. Bounds are passed on as bounds.

What all share (type): functional
One test relates to Pseudomonas aeruginosa. Nature of the test: Antibacterial activity against Pseudomonas aeruginosa obtained from complicated skin and skin structure infections by agar dilution method. (In general: In agar dilution the substance is mixed into plates at graded concentrations.)
A further test has as its system Acinetobacter baumannii. Nature of the test: Antibacterial activity against Acinetobacter baumannii obtained from complicated skin and skin structure infections by agar dilution method.
The next test deals with Pseudomonas fluorescens. Nature of the test: Antibacterial activity against Pseudomonas fluorescens obtained from complicated skin and skin structure infections by agar dilution method.
Test [1] relates to Stenotrophomonas maltophilia. As to the kind of experiment: Antibacterial activity against Stenotrophomonas maltophilia obtained from complicated skin and skin structure infections by agar dilution method.
A further test has as its system Klebsiella aerogenes. Nature of the test: Antibacterial activity against Enterobacter aerogenes obtained from complicated skin and skin structure infections by agar dilution method.
In another test the test system is Klebsiella oxytoca. As to the kind of experiment: Antibacterial activity against Klebsiella oxytoca obtained from complicated skin and skin structure infections by agar dilution method.
A further test relates to Citrobacter braakii. Nature of the test: Antibacterial activity against Citrobacter braakii obtained from complicated skin and skin structure infections by agar dilution method.
The next test concerns Citrobacter freundii. Nature of the test: Antibacterial activity against Citrobacter freundii obtained from complicated skin and skin structure infections by agar dilution method.
The test system of the next test is Enterobacter amnigenus. Nature of the test: Antibacterial activity against Enterobacter amnigenus obtained from complicated skin and skin structure infections by agar dilution method. The settings on record: Lelliottia amnigena.
Another test has as its system Escherichia coli. Nature of the test: Antibacterial activity against Escherichia coli obtained from complicated skin and skin structure infections by agar dilution method.
In a further test the test system is Morganella morganii. As to the kind of experiment: Antibacterial activity against Morganella morganii obtained from complicated skin and skin structure infections by agar dilution method.
Another test relates to Proteus mirabilis. As to the kind of experiment: Antibacterial activity against Proteus mirabilis obtained from complicated skin and skin structure infections by agar dilution method.
Another test deals with Proteus penneri. As to the kind of experiment: Antibacterial activity against Proteus penneri obtained from complicated skin and skin structure infections by agar dilution method.
The subject of the next test is Proteus vulgaris. As to the kind of experiment: Antibacterial activity against Proteus vulgaris obtained from complicated skin and skin structure infections by agar dilution method.
A further test has as its system Providencia stuartii. As to the kind of experiment: Antibacterial activity against Providencia stuartii obtained from complicated skin and skin structure infections by agar dilution method.
For the next test, the system named is Salmonella. As to the kind of experiment: Antibacterial activity against Salmonella spp. obtained from complicated skin and skin structure infections by agar dilution method.
The next test deals with Serratia marcescens. As to the kind of experiment: Antibacterial activity against Serratia marcescens obtained from complicated skin and skin structure infections by agar dilution method.
The subject of a further test is Klebsiella pneumoniae. As to the kind of experiment: Antibacterial activity against Klebsiella pneumoniae obtained from complicated skin and skin structure infections by agar dilution method.

For orientation: MIC50 means an inhibitory concentration at the 50% level, which refers to growth in some studies and to a panel of isolates in others. A higher MIC50 goes with lower susceptibility. A word on the MIC90: it is an inhibitory concentration at the 90% level, which refers to growth in some studies and to a panel of isolates in others. Lower therefore signals higher susceptibility.

As for `O=C(O)c1cn(C2CC2)c2cc(N3CCNCC3)c(F)cc2c1=O` [CIPROFLOXACIN], the MIC50 is 1 µg/mL (≈ 3.02 µM) against Pseudomonas aeruginosa; more than 2 µg/mL in the test with Acinetobacter baumannii; more than 2 µg/mL in the test with Pseudomonas fluorescens; more than 2 µg/mL in [1]; 0.015 µg/mL (≈ 0.0453 µM) against Klebsiella aerogenes; 0.015 µg/mL (≈ 0.0453 µM) in the test on Klebsiella oxytoca. Besides, the MIC50 with Citrobacter braakii was 0.015 µg/mL (≈ 0.0453 µM); in the test on Citrobacter freundii, 0.015 µg/mL (≈ 0.0453 µM); with Enterobacter amnigenus, 0.015 µg/mL (≈ 0.0453 µM); with Escherichia coli, 0.015 µg/mL (≈ 0.0453 µM); against Morganella morganii, 0.12 µg/mL (≈ 0.362 µM); against Proteus mirabilis, 0.03 µg/mL (≈ 0.0905 µM). Besides, the MIC50 in the test on Proteus penneri, against Proteus vulgaris, with Providencia stuartii, with Salmonella and against Serratia marcescens was 0.015 µg/mL (≈ 0.0453 µM) throughout. For the same compound, the MIC90 is more than 8 µg/mL with Pseudomonas aeruginosa; more than 8 µg/mL in the test with Acinetobacter baumannii; more than 8 µg/mL in the test with Pseudomonas fluorescens; more than 8 µg/mL in test [1]; more than 2 µg/mL in the test on Klebsiella aerogenes; more than 2 µg/mL in the test on Klebsiella oxytoca. Further, the MIC90 was more than 2 µg/mL against Citrobacter braakii; more than 2 µg/mL with Citrobacter freundii; more than 2 µg/mL with Enterobacter amnigenus; 1 µg/mL (≈ 3.02 µM) in the test on Escherichia coli; more than 8 µg/mL with Morganella morganii; more than 2 µg/mL in the test with Proteus mirabilis. The MIC90 in the test on Proteus penneri, against Proteus vulgaris, with Providencia stuartii, against Salmonella and with Serratia marcescens was more than 2 µg/mL each time.
`CO/N=C(\C(=O)N[C@@H]1C(=O)N2C(C(=O)[O-])=C(C[N+]3(C)CCCC3)CS[C@H]12)c1csc(N)n1`: the MIC50 against Pseudomonas aeruginosa is 4 µg/mL (≈ 8.32 µM); against Acinetobacter baumannii it was more than 16 µg/mL; in the test on Pseudomonas fluorescens, more than 16 µg/mL; in [1], more than 16 µg/mL; in the test on Klebsiella aerogenes, 0.06 µg/mL (≈ 0.125 µM); in the test on Klebsiella oxytoca, 0.06 µg/mL (≈ 0.125 µM). For the same compound, the MIC50 with Citrobacter braakii is 0.06 µg/mL (≈ 0.125 µM); in the test with Citrobacter freundii, 0.06 µg/mL (≈ 0.125 µM); with Enterobacter amnigenus, 0.06 µg/mL (≈ 0.125 µM); against Escherichia coli, 0.03 µg/mL (≈ 0.0624 µM); against Klebsiella pneumoniae, not above 0.12 µg/mL; in the test on Morganella morganii it was 0.03 µg/mL (≈ 0.0624 µM). The MIC50 against Proteus mirabilis, against Proteus penneri, with Proteus vulgaris, against Providencia stuartii, in the test on Salmonella and against Serratia marcescens was 0.06 µg/mL (≈ 0.125 µM) in each case. Besides, the MIC90 in the test with Pseudomonas aeruginosa came out at 64 µg/mL (≈ 133 µM); against Acinetobacter baumannii, 32 µg/mL (≈ 66.6 µM); against Pseudomonas fluorescens it was 32 µg/mL (≈ 66.6 µM); in test [1] it was 32 µg/mL (≈ 66.6 µM); against Klebsiella aerogenes it was 4 µg/mL (≈ 8.32 µM); against Klebsiella oxytoca, 4 µg/mL (≈ 8.32 µM). Further, the MIC90 with Citrobacter braakii is 4 µg/mL (≈ 8.32 µM); in the test with Citrobacter freundii, 4 µg/mL (≈ 8.32 µM); in the test on Enterobacter amnigenus it was 4 µg/mL (≈ 8.32 µM); against Escherichia coli, 0.12 µg/mL (≈ 0.25 µM); against Klebsiella pneumoniae it was 1 µg/mL (≈ 2.08 µM); against Morganella morganii, more than 64 µg/mL. Moreover, the MIC90 in the test with Proteus mirabilis amounted to 1 µg/mL (≈ 2.08 µM); with Proteus penneri it was 4 µg/mL (≈ 8.32 µM); in the test on Proteus vulgaris it was 4 µg/mL (≈ 8.32 µM); against Providencia stuartii, 4 µg/mL (≈ 8.32 µM); against Salmonella it was 4 µg/mL (≈ 8.32 µM); in the test on Serratia marcescens, 4 µg/mL (≈ 8.32 µM).
In the test on Pseudomonas aeruginosa, GENTAMICIN gave an MIC50 of 4 µg/mL and an MIC90 of more than 16 µg/mL.
